The values that follow come from patent US20250388605A1, “HETEROBIFUNCTIONAL COMPOUNDS AND METHODS OF TREATING DISEASE” (Halda Therapeutics OpCo, Inc., priority 2022, published 2025).

The structures appear in SMILES notation.

A word on the GI50: it is the concentration at which growth is held to half of that of the control. Broadly, the IC50 is the concentration needed to halve the response being measured.

The subject of assay [1] is T-Rex 293 cell line SC3 cells having increased expression of androgen receptor protein due to exposure to doxycycline. The experiment in a line: Cellular growth inhibition, T-Rex 293 SC3 cells with doxycycline (increased androgen receptor expression), CellTiter-Glo. Type of assay: cell-based. The conditions noted are these: T-Rex 293 SC3 cells with 10 ng/mL doxycycline (increased androgen receptor expression), 72 hours, CellTiter-Glo 2.0. The essentials: (§1)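 Growth inhibition is measured in an inducible AR-expressing T-Rex 293 clone, SC3, cultured with or without 10 ng/mL doxycycline in hormone-depleted medium. Test compounds are applied for 72 hours. GI50 values derive from CellTiter-Glo 2.0 signal fitted by four-parameter regression.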
(In ATP-based viability assays light output follows the ATP content of the culture.)

Assay [2] relates to T-Rex 293 cell line SC3 cells lacking increased expression of androgen receptor protein. The experiment in a line: Cellular growth inhibition, T-Rex 293 SC3 cells without doxycycline (no increased androgen receptor expression), CellTiter-Glo. Type of assay: cell-based. The settings on record: T-Rex 293 SC3 cells not exposed to doxycycline (no increased androgen receptor expression), 72 hours. The essentials: as §1

The subject of another assay is VCaP cells. Kind of assay: Cellular growth inhibition assay for VCaP cells, CellTiter-Glo. Type of assay: cell-based, human. The conditions noted are these: 72 hours. The essentials:
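GI50 values come from four-parameter curve fits of luminescence data normalized to a zero baseline. Compound, in medium with 0.5% DMSO, was added one day after plating and left for 72 h before CellTiter-Glo 2.0 addition.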

Another assay deals with T47D cells. Kind of assay: Cellular Growth Inhibition Assay for T47D Cells (CellTiter-Glo). The settings on record: 72 hours. Type of assay: cell-based, human. The essentials:
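GI50 values derive from four-parameter regression of CellTiter-Glo 2.0 luminescence, using zero luminescence as baseline. Human breast cancer T47D cells (3000/well; DMEM, 10% FBS, 0.2 units/mL insulin) were exposed for 72 h to compound dilutions at 0.5% DMSO, with dosing starting 24 h after seeding.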

In assay [3] the target is T1, progesterone receptor ligand binding domain (GST-tagged PR LBD) (Homo sapiens, UniProt P06401).
T1 construct: purchased Life Technologies A15905 or a15906
T1 sequence (P06401 679-913 limits assumed): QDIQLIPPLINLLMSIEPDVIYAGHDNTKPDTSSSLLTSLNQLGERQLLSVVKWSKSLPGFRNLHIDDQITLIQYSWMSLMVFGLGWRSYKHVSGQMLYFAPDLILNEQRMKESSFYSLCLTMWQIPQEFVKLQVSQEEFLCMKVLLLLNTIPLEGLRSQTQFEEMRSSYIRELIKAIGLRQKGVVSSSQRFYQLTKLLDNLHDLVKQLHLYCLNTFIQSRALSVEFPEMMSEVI
The experiment in a line: FP Assay for Binding Affinity to Progesterone Receptor (PolarScreen Progesterone Receptor Competitor Assay Kit). The conditions noted are these: fluorescence polarization, Fluormone tracer, 2 hours at room temperature. How it is done:
Exemplary compounds were tested for ability to bind to the progesterone receptor ligand binding domain (LBD).
Compounds were tested using the PolarScreen™ Progesterone Receptor Competitor Assay Kit (Life Technologies Cat #A15905 or a15906), as per the manufacturer's instructions. Briefly, GST-tagged PR LBD, Fluormone tracer, and compound were mixed and incubated for 2 hours at room temperature in the dark. Following incubation, the plates were spun at 3000×g for 30 seconds, then sealed with an optical adhesive cover, and fluorescence polarization was measured using appropriate excitation and emission filters with an EnVision Plate Reader (Perkin Elmer). Compound concentration vs. mP value were plotted in Prism (GraphPad). A four-parameter non-linear regression curve fit was applied to dose-response data to determine the half-maximal inhibitory concentration (IC50) for each test compound.
Background: Polarisation of emitted light reports the rotation of a fluorescent probe.

The subject of assay [4] is T-Rex 293 cell line SC cells having increased expression of progesterone receptor isoform B protein. Kind of assay: Cellular growth inhibition assay, T-Rex 293 SC cells exposed to doxycycline (increased progesterone receptor isoform B expression), CellTiter-Glo. Type of assay: cell-based. The settings on record: T-Rex 293 SC cells with 10 ng/mL doxycycline (increased PR isoform B), 72 hours. Here is the method:
(§2) The SC cells were seeded on poly-D-lysine coated, black clear-bottom 384-well plates at 2500/well, in 25 μL Phenol Red Free Dulbecco's Modified Eagle Medium (DMEM) supplemented with 10% w/w charcoal-dextran treated fetal bovine serum (FBS) and 1% w/w pen-strep, with or without 10 ng/mL doxycycline. Pen-Strep is a commercially available mixture of penicillin G and streptomycin, which is used in mammalian cell culture media to prevent bacterial contamination. Phenol Red Free Dulbecco's Modified Eagle Medium (DMEM) supplemented with 10% w/w charcoal-dextran treated fetal bovine serum (FBS) and 1% w/w pen-strep, with or without 10 ng/mL doxycycline is herein referred to as Treatment Medium. Following seeding of cells in the plates, the plates were spun at 300×g for 30 seconds, then equilibrated to room temperature for 30 minutes, and then deposited in a humidified tissue culture incubator maintained at 37° C. with 5% CO2.
(§3) At 24 hours after seeding of the cells, dilutions of test compound were prepared in DMSO and dissolved in Treatment Medium, to achieve a final DMSO concentration of 0.5% w/w, thereby providing the Test Compound Solution. A 25 μL aliquot of the Test Compound Solution was added to cells in the well plates. An equal volume of a solution containing DMSO and Treatment Medium was used as a negative control. Following treatment of cells with Test Compound Solution or said equal volume of a solution containing DMSO and Treatment Medium, the plates were spun at 300×g for 30 seconds, and then left in an incubator for 72 hours.
(§4) At the end of the treatment duration, cell viability was quantified with CellTiter-Glo 2.0 reagent (Promega Cat #G9243). For this purpose, plates were equilibrated to room temperature for 30 minutes, and then 25 μL of CellTiter-Glo 2.0 reagent was added to cells in the plate wells. Plates were then agitated on a shaker for two minutes at 500 rpm and subsequently incubated at room temperature for 10 minutes. Following incubation, the plates were spun at 3000×g for 30 seconds, then sealed with an optical adhesive cover, and luminescence readings were measured with an EnVision Plate Reader (Perkin Elmer).
(§5) Data was normalized using zero luminescence for baseline. A four-parameter non-linear regression curve fit was applied to dose-response data in GraphPad Prism data analysis software to determine the half-maximal growth inhibitory concentration (GI50) for each test compound.

In assay [5] the test system is T-Rex 293 cell line SC cells lacking increased expression of progesterone receptor isoform B protein. Kind of assay: Cellular growth inhibition assay, T-Rex 293 SC cells not exposed to doxycycline (no increased progesterone receptor isoform B expression), CellTiter-Glo. Type of assay: cell-based. The settings on record: T-Rex 293 SC cells without doxycycline (no increased PR isoform B), 72 hours. Here is the method: as §2, §3, §4, §5

As to `Cn1cc(-c2cc(C(C)(C)O)ccc2Oc2ccc(F)c(OCCC3CC4(C3)CN(c3ncc(C(=O)N[C@H]5C(C)(C)[C@H](Oc6ccc(C#N)c(Cl)c6)C5(C)C)cn3)C4)c2F)c2cc[nH]c2c1=O` [Compound I-225], the GI50 (in assay [1]; in assay [2]; in the assay on VCaP cells; in the assay on T47D cells) was under 500 nM throughout. In assay [3], this compound had an IC50 of under 50 nM.
Consider `CC(C)N(CCOc1cccc(Oc2ccc(C(C)(C)O)cc2-c2cn(C)c(=O)c3[nH]ccc23)c1F)C1CCN(c2ncc(C(=O)N[C@H]3C(C)(C)[C@H](Oc4ccc(C#N)c(Cl)c4)C3(C)C)cn2)CC1` [Compound I-224], for which the GI50 (in assay [1]; in assay [2]; in the assay on VCaP cells (Homo sapiens); in the assay on T47D cells (Homo sapiens)) was under 500 nM each time. Moreover, the IC50 in assay [3] was in the range of 50 to 500 nM.
For the compound `CCS(=O)(=O)Nc1ccc(Oc2cccc(N3CC(C4CCN(c5ncc(C(=O)N[C@H]6C(C)(C)[C@H](Oc7ccc(C#N)c(Cl)c7)C6(C)C)cn5)CC4)C3)c2)c(-c2cn(C)c(=O)c3[nH]ccc23)c1` [Compound I-74], the GI50 (in assay [1]; in assay [2]; in the assay on VCaP cells (Homo sapiens); with T47D cells (Homo sapiens)) was under 500 nM each time. In assay [3], this compound registered a half-inhibitory concentration (IC50) of over 2500 nM.
Consider `Cn1cc(-c2cc(C(C)(C)O)ccc2Oc2cccc(OCCN3CCN(c4ncc5c(n4)CN([C@H]4C(C)(C)[C@H](Oc6ccc(C#N)c(Cl)c6)C4(C)C)C5=O)CC3)c2F)c2cc[nH]c2c1=O` [Compound I-227], for which the GI50 (in assay [1]; in assay [2]; with VCaP cells; in the assay on T47D cells) was under 500 nM in each case. This compound also yielded an IC50 in assay [3] of under 50 nM.
On to `CN(CCCCc1ccc(Oc2ccc(C(C)(C)O)cc2-c2cn(C)c(=O)c3[nH]ccc23)cc1)c1ncc(C(=O)N[C@H]2C(C)(C)[C@H](Oc3ccc(C#N)c(Cl)c3)C2(C)C)cn1` [Compound I-218], for which the GI50 was under 500 nM in assay [1], 1500 to 3000 nM in assay [2], 1500 to 3000 nM in the assay on VCaP cells (Homo sapiens) and 500 to 1500 nM with T47D cells (Homo sapiens). The IC50 in assay [3] lay in the range of 50 to 500 nM.
Turning to `CN(CCCOc1ccc(Oc2ccc(C(C)(C)O)cc2-c2cn(C)c(=O)c3[nH]ccc23)cc1)c1ncc(C(=O)N[C@H]2C(C)(C)[C@H](Oc3ccc(C#N)c(Cl)c3)C2(C)C)cn1` [Compound I-200], the concentration for 50% growth inhibition (GI50) was under 500 nM in assay [1]; 500 to 1500 nM in assay [2]; under 500 nM in the assay with VCaP cells (Homo sapiens); under 500 nM in assay [4]; under 500 nM in assay [5]; 500 to 1500 nM in the assay on T47D cells (Homo sapiens).
As for `CCS(=O)(=O)c1ccc(Oc2cccc(CCCOC3CC4(C3)CN(c3ccc(C(=O)N[C@H]5C(C)(C)[C@H](Oc6ccc(C#N)c(Cl)c6)C5(C)C)cn3)C4)c2F)c(-c2cn(C)c(=O)c3[nH]ccc23)c1` [Compound I-215], the GI50 (in assay [1]; in assay [2]; with VCaP cells (Homo sapiens); in the assay with T47D cells (Homo sapiens)) was under 500 nM throughout. Moreover, the IC50 in assay [3] was over 2500 nM.
For `Cn1cc(-c2cc(C(C)(C)O)ccc2Oc2ccc(N3CC(OC4CN(c5ncc(C(=O)N[C@H]6C(C)(C)[C@H](Oc7ccc(C#N)c(Cl)c7)C6(C)C)cn5)C4)C3)cc2)c2cc[nH]c2c1=O` [Compound I-303], the 50% growth inhibitory concentration (GI50) in assay [1] is under 500 nM; in assay [2], under 500 nM; in the assay with VCaP cells, under 500 nM; in assay [4], under 500 nM; in assay [5] it was 500 to 1500 nM; with T47D cells it was under 500 nM.
Consider `Cn1cc(-c2cc(C(C)(C)O)ccc2Oc2ccc(N3CC(CC4CN(c5cnc(C(=O)N[C@H]6C(C)(C)[C@H](Oc7ccc(C#N)c(Cl)c7)C6(C)C)cn5)C4)C3)cc2)c2cc[nH]c2c1=O` [Compound I-317], for which the GI50 in assay [1] was under 500 nM; in assay [2] it was under 500 nM; with VCaP cells (Homo sapiens), under 500 nM; in assay [4] it was under 500 nM; in assay [5], 500 to 1500 nM; in the assay on T47D cells (Homo sapiens), under 500 nM.
With `Cn1cc(-c2cc(C(C)(C)O)ccc2Oc2ccc(N3CC(CC4CN(c5ccc(C(=O)N[C@H]6C(C)(C)[C@H](Oc7ccc(C#N)c(Cl)c7)C6(C)C)nc5)C4)C3)cc2)c2cc[nH]c2c1=O` [Compound I-322], the 50% growth inhibitory concentration (GI50) was under 500 nM in assay [1]; 1500 to 3000 nM in assay [2]; 500 to 1500 nM in the assay with VCaP cells; under 500 nM in assay [4]; 1500 to 3000 nM in assay [5]; under 500 nM in the assay on T47D cells.
`CCS(=O)(=O)Nc1ccc(Oc2cccc(OCCCC3CCN(c4ncc(C(=O)N[C@H]5C(C)(C)[C@H](Oc6ccc(C#N)c(Cl)c6)C5(C)C)cn4)CC3)c2)c(-c2cn(C)c(=O)c3[nH]ccc23)c1` [Compound I-27]: the GI50 in assay [1] was under 500 nM; in assay [2] it was 500 to 1500 nM; with VCaP cells (Homo sapiens) it was under 500 nM; in assay [4], under 500 nM; in assay [5], over 3000 nM; in the assay with T47D cells (Homo sapiens), under 500 nM.
Turning to `CCS(=O)(=O)c1ccc(Oc2cccc(CCCOC3CC4(C3)CN(c3ncc(C(=O)N[C@H]5C(C)(C)[C@H](Oc6ccc(C#N)c(Cl)c6)C5(C)C)cn3)C4)c2F)c(-c2cn(C)c(=O)c3[nH]ccc23)c1` [Compound I-205], the GI50 (in assay [1]; in assay [2]; with VCaP cells (Homo sapiens); in assay [4]; in assay [5]; with T47D cells (Homo sapiens)) was under 500 nM throughout.
As to `CCS(=O)(=O)c1ccc(Oc2cccc(CCCCN3CC4(C3)CN(c3ncc(C(=O)N[C@H]5C(C)(C)[C@H](Oc6ccc(C#N)c(Cl)c6)C5(C)C)cn3)C4)c2F)c(-c2cn(C)c(=O)c3[nH]ccc23)c1` [Compound I-206], the GI50 (in assay [1]; in assay [2]; in the assay on VCaP cells (Homo sapiens); in assay [4]; in assay [5]; with T47D cells (Homo sapiens)) was under 500 nM throughout.
As to `CN(CCc1ccc(Oc2ccc(C(C)(C)O)cc2-c2cn(C)c(=O)c3[nH]ccc23)cc1)c1ncc(C(=O)N[C@H]2C(C)(C)[C@H](Oc3ccc(C#N)c(Cl)c3)C2(C)C)cn1` [Compound I-198], the GI50 (in assay [1]; in assay [2]; with VCaP cells (Homo sapiens); in assay [4]; in assay [5]; in the assay on T47D cells (Homo sapiens)) was under 500 nM in each case.
